According to the NIST ThermoML archive (doi:10.1016/j.jct.2017.09.005):
Values joined by “and” are separate entries in the source; they are usually repeats but may differ in a detail not shown here. Identical values can stand only once.

How the values were obtained:
[1] = for vapor or sublimation pressure: Twin ebulliometer; for molar entropy: 101.33 kPa, Small sample (50 mg) DSC; for Critical density: DSC; for Critical temperature: DTA
[2] = molar heat capacity at saturation pressure; settings: Liquid, Small sample (50 mg) DSC

Cc1c[nH]c(C)c1 [2,4-dimethyl-1H-pyrrole]
[1]
Settings | mass density [kg/m3]
323.14 K, Liquid, Vibrating tube method | 895.5
348.13 K, Liquid, Vibrating tube method | 874.8
373.12 K, Liquid, Vibrating tube method | 853
398.12 K, Liquid, Vibrating tube method | 830.6
423.11 K, Liquid, Vibrating tube method | 807.2
448.11 K, Liquid, Vibrating tube method | 781.3
645.3 K, Gas, From heat capacities measured by DSC | 159
648.6 K, Gas, From heat capacities measured by DSC | 220
649 K, Gas, From heat capacities measured by DSC | 248
650 K, Liquid, From heat capacities measured by DSC | 413
656.5 K, Liquid, From heat capacities measured by DSC | 292

[1], Liquid
Settings | molar entropy [J/K/mol] | vapor or sublimation pressure
338.25 K | – | 1.995 kPa
343.72 K | – | 2.666 kPa
351.75 K | – | 4 kPa
357.76 K | – | 5.337 kPa
366.62 K | – | 7.992 kPa
373.28 K | – | 10.66 kPa
378.68 K | – | 13.34 kPa
384.24 K | – | 16.66 kPa
388.88 K | – | 19.93 kPa
394.96 K | – | 25.02 kPa and 25.01 kPa
401.09 K | – | 31.17 kPa
407.25 K | – | 38.57 kPa
413.43 K | – | 47.37 kPa
419.66 K | – | 57.81 kPa
425.98 K | – | 70.24 kPa
432.21 K | – | 84.53 kPa
438.54 K | – | 101.33 kPa
440 K | 306.38 | –
444.91 K | – | 120.8 kPa
451.31 K | – | 143.27 kPa
457.75 K | – | 169.05 kPa
460 K | 317.25 | –
464.23 K | – | 198.53 kPa
470.74 K | – | 232.06 kPa
477.28 K | – | 270.07 kPa
480 K | 327.92 | –
500 K | 338.4 | –
520 K | 348.69 | –
540 K | 358.8 | –
560 K | 368.76 | –
580 K | 378.61 | –
600 K | 388.45 | –

Settings | Critical density [kg/m3] | Critical temperature [K] | molar heat capacity [J/K/mol]
[1], Liquid | 285.8 | 653 | –
[2], 440 K | – | – | 241.31
[2], 460 K | – | – | 247.84
[2], 480 K | – | – | 253.77
[2], 500 K | – | – | 259.54
[2], 520 K | – | – | 265.15
[2], 540 K | – | – | 270.8
[2], 560 K | – | – | 276.99
[2], 580 K | – | – | 284.79
[2], 600 K | – | – | 297.37

c1cc[nH]c1 [pyrrole]
[1]
Settings | mass density [kg/m3]
323.14 K, Liquid, Vibrating tube method | 943.9
348.13 K, Liquid, Vibrating tube method | 921.2
373.12 K, Liquid, Vibrating tube method | 897.8
398.12 K, Liquid, Vibrating tube method | 873.5
423.11 K, Liquid, Vibrating tube method | 847.6
448.11 K, Liquid, Vibrating tube method | 820.2
468.11 K, Liquid, Vibrating tube method | 796.1
604.6 K, Gas, From heat capacities measured by DSC | 104
623.7 K, Gas, From heat capacities measured by DSC | 148
632.4 K, Gas, From heat capacities measured by DSC | 220
633.5 K, Liquid, From heat capacities measured by DSC | 395
635.4 K, Liquid, From heat capacities measured by DSC | 329
637.8 K, Gas, From heat capacities measured by DSC | 271

[1], Liquid
Settings | molar entropy [J/K/mol]
360 K | 181.95
380 K | 189.82
400 K | 197.54
420 K | 205.12
440 K | 212.58
460 K | 219.91
480 K | 227.13
500 K | 234.23
520 K | 241.22
540 K | 248.11

Settings | Critical density [kg/m3] | Critical temperature [K] | molar heat capacity [J/K/mol]
[1], Liquid | 314.2 | 638.5 | –
[2], 360 K | – | – | 143.21
[2], 380 K | – | – | 148.11
[2], 400 K | – | – | 152.99
[2], 420 K | – | – | 157.84
[2], 440 K | – | – | 162.62
[2], 460 K | – | – | 167.28
[2], 480 K | – | – | 171.79
[2], 500 K | – | – | 176.14
[2], 520 K | – | – | 180.48
[2], 540 K | – | – | 185.06
